Data taken from article PMC3637054, “Comparison of activity indexes for recognizing enzyme mutants of higher activity with uricase as model” (Chemistry Central Journal, 2013).

System: T1, uricase of Asahi-Kasei
T1 construct: gene urate oxidase; commercial diagnostic enzyme of Asahi-Kasei
Test: UV absorbance at […] nm, initial rates, Lineweaver-Burk
Format: biochemical
Settings: borate buffer, 25 °C

O=c1[nH]c(=O)c2[nH]c(=O)[nH]c2[nH]1 [uric acid]
Km: ~30 µM
